Laboratory results reported in PubChem BioAssay AID328 (DTP/NCI, 2004).
Where “and” joins values, the source holds several entries; their conditions need not be identical. Equal values may be shown once. Inconclusive results and toxic doses are left out.

Test system: BDF1 mice, P388 leukemia ip, median survival T/C
Test: NCI In Vivo Anticancer Drug Screen. Data for tumor model P388 Leukemia (intraperitoneal) in B6D2F1 (BDF1) mice
Conditions: endpoint: median survival time, higher = longer survival
Summary of the method: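 Each value expresses how treatment altered survival: treated-mouse outcome over vehicle-mouse outcome, both groups bearing the transplanted tumour.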

[1] = dose: 100.0 mg/kg/injection, schedule: Q04DX003 (ip), vehicle: saline with Tween-80
[2] = dose: 200.0 mg/kg/injection, schedule: Q04DX003 (ip), vehicle: saline with Tween-80
[3] = dose: 400.0 mg/kg/injection, schedule: Q04DX003 (ip), vehicle: saline with Tween-80

Question: What does the source list for `C#CCN(C)CCO`?
Answer: T/C (dose: 100.0 mg/kg/injection, schedule: Q01DX001 (ip), vehicle: saline): 105 % of control; T/C (dose: 100.0 mg/kg/injection, schedule: Q04DX003 (ip), vehicle: alcohol): 90 % of control; T/C (dose: 200.0 mg/kg/injection, schedule: Q01DX001 (ip), vehicle: saline): 95 % of control; T/C (dose: 200.0 mg/kg/injection, schedule: Q04DX003 (ip), vehicle: alcohol): 100 % of control; T/C (dose: 400.0 mg/kg/injection, schedule: Q01DX001 (ip), vehicle: saline): 100 % of control; T/C (dose: 400.0 mg/kg/injection, schedule: Q04DX003 (ip), vehicle: alcohol): 100 % of control

Question: Which results are given for `C=C(C)C(=O)NCC(=O)Oc1ccc([N+](=O)[O-])cc1`?
Answer: T/C (dose: 50.0 mg/kg/injection, schedule: Q01DX009 (ip), vehicle: saline with Tween-80): 86 % of control; T/C (dose: 100.0 mg/kg/injection, schedule: Q01DX009 (ip), vehicle: saline with Tween-80): 102 % of control; T/C (dose: 200.0 mg/kg/injection, schedule: Q01DX009 (ip), vehicle: saline with Tween-80): 93 % of control

Question: How did the T/C (dose: 0.78 mg/kg/injection, schedule: Q01DX009 (ip), vehicle: saline with Tween-80) turn out when `ON=C1CSSC1` was run?
Answer: 100 % of control

Question: What about the T/C (dose: 0.78 mg/kg/injection, schedule: Q04DX003 (ip), vehicle: saline with Tween-80) of the same compound?
Answer: 106 % of control

Question: And the T/C (dose: 1.56 mg/kg/injection, schedule: Q01DX009 (ip), vehicle: saline with Tween-80)?
Answer: 102 % of control

Question: And the T/C (dose: 1.56 mg/kg/injection, schedule: Q04DX003 (ip), vehicle: saline with Tween-80)?
Answer: 100 % of control

Question: What about the T/C (dose: 3.12 mg/kg/injection, schedule: Q01DX009 (ip), vehicle: saline with Tween-80) of the same compound?
Answer: 109 % of control

Question: And the T/C (dose: 3.12 mg/kg/injection, schedule: Q04DX003 (ip), vehicle: saline with Tween-80)?
Answer: 99 % of control and 104 % of control

Question: What about the T/C (dose: 6.25 mg/kg/injection, schedule: Q01DX009 (ip), vehicle: saline with Tween-80) of the same compound?
Answer: 90 % of control

Question: And the T/C (dose: 6.25 mg/kg/injection, schedule: Q04DX003 (ip), vehicle: saline with Tween-80)?
Answer: 100 % of control and 104 % of control

Question: And the T/C (dose: 12.5 mg/kg/injection, schedule: Q01DX009 (ip), vehicle: saline with Tween-80)?
Answer: 102 % of control

Question: What about the T/C (dose: 12.5 mg/kg/injection, schedule: Q04DX003 (ip), vehicle: saline with Tween-80) of the same compound?
Answer: 99 % of control and 106 % of control

Question: Which T/C (dose: 6.25 mg/kg/injection, schedule: Q01DX009 (ip), vehicle: saline) does the source give for `O=c1cc(CO)occ1O.O=c1cc(CO)occ1O.[O]=[V]` here?
Answer: 105 % of control

Question: What about the T/C (dose: 12.5 mg/kg/injection, schedule: Q01DX009 (ip), vehicle: saline) of the same compound?
Answer: 94 % of control

Question: And the T/C (dose: 25.0 mg/kg/injection, schedule: Q01DX009 (ip), vehicle: saline)?
Answer: 100 % of control

Question: How did the T/C (dose: 0.37 mg/kg/injection, schedule: Q04DX003 (ip), vehicle: other) turn out when `N#Cc1cn(C2OC(CO)C(O)C2O)c2ncnc(N)c12` (stereo not given) was run?
Answer: 163 % of control

Question: What about the T/C (dose: 0.38 mg/kg/injection, schedule: Q01DX009 (ip), vehicle: other) of the same compound?
Answer: 105 % of control

Question: And the T/C (dose: 0.56 mg/kg/injection, schedule: Q04DX003 (ip), vehicle: other)?
Answer: 159 % of control

Question: And the T/C (dose: 0.83 mg/kg/injection, schedule: Q04DX003 (ip), vehicle: other)?
Answer: 172 % of control

Question: What about the T/C (dose: 0.88 mg/kg/injection, schedule: Q04DX003 (ip), vehicle: other) of the same compound?
Answer: 154 % of control

Question: What about the T/C (dose: 1.25 mg/kg/injection, schedule: Q04DX003 (ip), vehicle: other) of the same compound?
Answer: 204 % of control

Question: What about the T/C (dose: 1.33 mg/kg/injection, schedule: Q04DX003 (ip), vehicle: other) of the same compound?
Answer: 200 % of control

Question: And the T/C (dose: 2.0 mg/kg/injection, schedule: Q04DX003 (ip), vehicle: other)?
Answer: 150 % of control

Question: What about the T/C (dose: 3.0 mg/kg/injection, schedule: Q04DX003 (ip), vehicle: other) of the same compound?
Answer: 100 % of control

Question: With `ClCCN(CCCl)c1cc(OCc2ccccc2)cc(OCc2ccccc2)c1` as the compound, how does the T/C (dose: 6.25 mg/kg/injection, schedule: Q01DX009 (ip), vehicle: water) read?
Answer: 91 % of control

Question: And the T/C (dose: 12.5 mg/kg/injection, schedule: Q01DX009 (ip), vehicle: water)?
Answer: 88 % of control

Question: And the T/C (dose: 25.0 mg/kg/injection, schedule: Q01DX009 (ip), vehicle: water)?
Answer: 86 % of control

Question: What about the T/C (dose: 25.0 mg/kg/injection, schedule: Q04DX003 (ip), vehicle: water) of the same compound?
Answer: 91 % of control

Question: What about the T/C (dose: 50.0 mg/kg/injection, schedule: Q01DX009 (ip), vehicle: water) of the same compound?
Answer: 88 % of control

Question: What about the T/C (dose: 50.0 mg/kg/injection, schedule: Q04DX003 (ip), vehicle: water) of the same compound?
Answer: 89 % of control

Question: And the T/C (dose: 100.0 mg/kg/injection, schedule: Q01DX009 (ip), vehicle: water)?
Answer: 98 % of control

Question: And the T/C (dose: 100.0 mg/kg/injection, schedule: Q04DX003 (ip), vehicle: water)?
Answer: 121 % of control

Question: And the T/C (dose: 200.0 mg/kg/injection, schedule: Q01DX009 (ip), vehicle: water)?
Answer: 92 % of control and 97 % of control

Question: And the T/C (dose: 200.0 mg/kg/injection, schedule: Q04DX003 (ip), vehicle: water)?
Answer: 97 % of control

Question: And the T/C (dose: 400.0 mg/kg/injection, schedule: Q04DX003 (ip), vehicle: water)?
Answer: 89 % of control

Question: For `Cc1nc([N+](=O)[O-])cn1CCC#N`, which T/C [1] is on record?
Answer: 98 % of control

Question: What about the T/C [2] of the same compound?
Answer: 99 % of control

Question: What about the T/C [3] of the same compound?
Answer: 86 % of control

Question: What does the source list for `C=C(Cl)CSCC`?
Answer: T/C (dose: 6.25 mg/kg/injection, schedule: Q04DX003 (ip), vehicle: alcohol): 100 % of control; T/C (dose: 12.5 mg/kg/injection, schedule: Q01DX009 (ip), vehicle: acetone): 118 % of control; T/C (dose: 12.5 mg/kg/injection, schedule: Q04DX003 (ip), vehicle: alcohol): 105 % of control; T/C (dose: 25.0 mg/kg/injection, schedule: Q01DX009 (ip), vehicle: acetone): 113 % of control; T/C (dose: 25.0 mg/kg/injection, schedule: Q04DX003 (ip), vehicle: alcohol): 100 % of control; T/C (dose: 45.0 mg/kg/injection, schedule: Q01DX001 (ip), vehicle: saline): 109 % of control; T/C (dose: 90.0 mg/kg/injection, schedule: Q01DX001 (ip), vehicle: saline): 109 % of control; T/C (dose: 120.0 mg/kg/injection, schedule: Q04DX003 (ip), vehicle: saline): 109 % of control; T/C (dose: 180.0 mg/kg/injection, schedule: Q04DX003 (ip), vehicle: saline): 95 % of control; T/C (dose: 270.0 mg/kg/injection, schedule: Q04DX003 (ip), vehicle: saline): 86 % of control

Question: Which T/C (dose: 100.0 mg/kg/injection, schedule: Q01DX001 (ip), vehicle: other) does the source give for `Nc1cc(Cl)cc(Cl)c1C(=O)O` here?
Answer: 95 % of control

Question: And the T/C (dose: 200.0 mg/kg/injection, schedule: Q01DX001 (ip), vehicle: other)?
Answer: 100 % of control

Question: What about the T/C (dose: 400.0 mg/kg/injection, schedule: Q01DX001 (ip), vehicle: other) of the same compound?
Answer: 95 % of control

Question: Which T/C [1] does the source give for `CCCCc1c(C)[nH]c(=S)[nH]c1=O` here?
Answer: 95 % of control

Question: What about the T/C [2] of the same compound?
Answer: 109 % of control

Question: And the T/C [3]?
Answer: 95 % of control

Question: `CCCCCCCCSSCCCCCCCC` was tested. Which T/C (dose: 100.0 mg/kg/injection, schedule: Q04DX003 (ip), vehicle: saline) did it give?
Answer: 95 % of control

Question: And the T/C (dose: 200.0 mg/kg/injection, schedule: Q04DX003 (ip), vehicle: saline)?
Answer: 100 % of control

Question: What about the T/C (dose: 400.0 mg/kg/injection, schedule: Q04DX003 (ip), vehicle: saline) of the same compound?
Answer: 95 % of control

Question: With `OCCN=Cc1ccccc1` as the compound, how does the T/C [1] read?
Answer: 100 % of control

Question: And the T/C [2]?
Answer: 100 % of control

Question: How did the T/C (dose: 100.0 mg/kg/injection, schedule: Q01DX001 (ip), vehicle: Klucel (hydroxypropylcellulose) (HPC)) turn out when `COC(=O)c1ccc(OCCOc2ccc(C(C)(C)CC(C)(C)C)cc2)c(N)c1` was run?
Answer: 95 % of control

Question: What about the T/C (dose: 200.0 mg/kg/injection, schedule: Q01DX001 (ip), vehicle: Klucel (hydroxypropylcellulose) (HPC)) of the same compound?
Answer: 104 % of control

Question: And the T/C (dose: 400.0 mg/kg/injection, schedule: Q01DX001 (ip), vehicle: Klucel (hydroxypropylcellulose) (HPC))?
Answer: 100 % of control

Question: What does the source list for `CCCCN1CCN(c2ccc([N+](=O)[O-])c3no[n+]([O-])c23)CC1`?
Answer: T/C (dose: 16.0 mg/kg/injection, schedule: Q04DX003 (ip), vehicle: saline with Tween-80): 121 % of control; T/C (dose: 32.0 mg/kg/injection, schedule: Q04DX003 (ip), vehicle: saline with Tween-80): 150 % of control; T/C (dose: 64.0 mg/kg/injection, schedule: Q04DX003 (ip), vehicle: saline with Tween-80): 100 % of control

Question: `C=C(Cl)C(=O)OCC` was tested. Which T/C (dose: 5.0 mg/kg/injection, schedule: Q04DX003 (ip), vehicle: saline) did it give?
Answer: 100 % of control

Question: What about the T/C (dose: 10.0 mg/kg/injection, schedule: Q04DX003 (ip), vehicle: saline) of the same compound?
Answer: 109 % of control

Question: And the T/C (dose: 20.0 mg/kg/injection, schedule: Q04DX003 (ip), vehicle: saline)?
Answer: 100 % of control

Question: How did the T/C (dose: 6.25 mg/kg/injection, schedule: Q01DX001 (ip), vehicle: saline) turn out when `[NH2-].[NH2-].[NH2-].[NH2-].[NH2-].[NH2-].[Ni]` was run?
Answer: 99 % of control

Question: What about the T/C (dose: 12.5 mg/kg/injection, schedule: Q01DX001 (ip), vehicle: saline) of the same compound?
Answer: 103 % of control

Question: With `O=[N+]([O-])C(c1ccccc1)C(c1ccccc1)C(c1ccccc1)[N+](=O)[O-]` (stereo not given) as the compound, how does the T/C (dose: 50.0 mg/kg/injection, schedule: Q01DX005 (ip), vehicle: saline with Tween-80) read?
Answer: 103 % of control

Question: And the T/C (dose: 100.0 mg/kg/injection, schedule: Q01DX005 (ip), vehicle: saline with Tween-80)?
Answer: 87 % of control

Question: What about the T/C (dose: 200.0 mg/kg/injection, schedule: Q01DX005 (ip), vehicle: saline with Tween-80) of the same compound?
Answer: 91 % of control
